Assays:
[1] = system: patients with stable HFrEF; experiment: HFrEF study Part 1 (SAD Cohorts 1 and 2): safety (TEAEs, troponin, ECG, Holter); assay type: in vivo, human
Protocol: Safety and efficacy assessments were conducted by measuring patients' vital signs and laboratory parameters; performing TTE to measure, e.g., systolic ejection time; performing electrocardiograms (e.g., 12-lead ECG), real-time ECG telemetry (e.g., at least 3-lead), and Holter ECG; and measuring levels of troponin (e.g., troponin I and/or troponin T) and […].
The following safety laboratory parameters were measured: (1) hematology parameters (CBC, including differential count, and platelet count); (2) serum chemistry parameters (e.g., sodium, potassium, chloride, bicarbonate, calcium, magnesium, urea, creatinine, ALP, ALT, AST, total bilirubin, glucose, and CPK); and (3) urinalysis parameters (e.g., pH, protein, glucose, leukocyte esterase, and blood).
Abnormal and/or rising troponin values (as per investigator's judgment and taking into account potential baseline troponin elevation frequently observed in heart failure) led to the patient being clinically evaluated for possible myocardial ischemia. […] The entire clinical context (e.g., signs, symptoms, new ECG changes, new troponin, and CK-MB abnormalities) was evaluated and correlated with any other relevant clinical findings, patient's medical history, and laboratory data to determine the clinical significance of the findings. Troponin results performed on Day 2 of Part 1 (SAD) and Day 10 of Part 2 (MAD) at a local lab were reviewed prior to the patient being discharged the next day.

healthy subjects = experiment: Single ascending oral dose study in healthy volunteers: safety (AEs, ECG, hs-troponin I); assay type: in vivo, human
Protocol: PK and PD data were collected as described herein. […] Changes from Baseline at each postbaseline timepoint were assessed.
A 12-lead electrocardiogram (ECG) was obtained after the subjects had rested in a supine position for at least 10 minutes. […] Digital 12-lead ECG evaluations was performed after 10 minutes of rest at Screening, preclose on Day 1 (within 2 hours of dosing), and at various predetermined time points. Each time an ECG was completed, a 10-second paper ECG rhythm strip would also be obtained and maintained in the subject's source documentation.
The ECGs were transmitted to the core ECG laboratory who read the recordings in a blinded manner. An automated methodology was utilized with manual over-reading by a cardiologist. The following intervals were measured: RR, PR, QRS, and QT. Heart rate (HR) was calculated as 60/(RR×1000) (with RR expressed in msec) and rounded to the nearest integer.
Corrected QT interval (QTc) was calculated using the manually over-read QT values per the standard procedures of the central ECG laboratory. Each individual ECG QT value was corrected for HR. The measured QT data were corrected for HR using the Fridericia correction QTcF and the Bazzett method (QTcB) as per the following formulae/method (with QT, RR and QTc expressed in msec): […]
Any abnormal findings judged by the investigator to be clinically important were recorded as adverse events (AEs). AEs were mapped to system organ classes (SOCs) and preferred terms (PTs) using the Medical Dictionary for Regulatory Activities (MedDRA). AEs were monitored during the study and the data analyzed with respect to overall incidence, severity, and potential relationship to study medication. The blinded AEs were presented to the SRC for review after each cohort to aid in their decision on the dose of the subsequent cohort or if the study should be terminated. […] No ECG changes or symptoms were noted.
For the final analysis, the AEs were grouped by treatment group with all of the subjects who received placebo pooled as 1 group. AEs with onset on or after the first dose of study medication, or with an onset before the first dose of study medication that increased in severity on or after the first dose of study medication. Treatment-emergent AEs (defined as AEs starting […]) were summarized for the Safety Analysis Population by MedDRA SOC and PT, and by severity and relationship to treatment. Severe and life-threatening AEs, SAEs, and AEs leading to study withdrawal, if any, were presented in data listings.
Serum samples were drawn for hs-troponin I. Analyses were performed using the Abbott Architect STAT High Sensitivity Troponin I assay.

Cn1cc(S(=O)(=O)[C@@](C)(F)C2CCN(C(=O)Nc3ccon3)CC2)c(C(F)F)n1 [Compound I, (R)-4-(1-((3-(difluoromethyl)-1-methyl-1H-pyrazol-4-yl)sulfonyl)-1-fluoroethyl)-N-(isoxazol-3-yl)piperidine-1-carboxamide]
TEAE Any SOC, any PT, % ([1]; 175 mg (n = 8)): (25.0) % | TEAE Dyspnea, % ([1]; 175 mg (n = 8)): (12.5) % | TEAE Fatigue, % ([1]; 175 mg (n = 8)): (12.5) % | TEAE Infusion site discomfort, % ([1]; 175 mg (n = 8)): (12.5) % | TEAE Urinary tract infection, % ([1]; 175 mg (n = 8)): (12.5) % | TEAE Any SOC, any PT, % ([1]; 350 mg (n = 8)): (62.5) % | TEAE Bursitis, % ([1]; 350 mg (n = 8)): (12.5) % | TEAE Diarrhoea, % ([1]; 350 mg (n = 8)): (12.5) % | TEAE Hypomagnesemia, % ([1]; 350 mg (n = 8)): (12.5) % | TEAE Oral contusion, % ([1]; 350 mg (n = 8)): (12.5) % | TEAE Proteinuria, % ([1]; 350 mg (n = 8)): (12.5) % | TEAE Anemia, % ([1]; 400 mg Split Dose (n = 4)): (25.0) % | TEAE Any SOC, any PT, % ([1]; 400 mg Split Dose (n = 4)): (75.0) % | TEAE Neck pain, % ([1]; 400 mg Split Dose (n = 4)): (25.0) % | TEAE Orthostatic hypotension, % ([1]; 400 mg Split Dose (n = 4)): (25.0) % | TEAE Ventricular extrasystoles, % ([1]; 400 mg Split Dose (n = 4)): (25.0) % | TEAE Any SOC, any PT, % ([1]; 550 mg Split Dose (n = 2)): (50.0) % | TEAE Cardiac discomfort, % ([1]; 550 mg Split Dose (n = 2)): 50.0% | TEAE Dyspnea, % ([1]; 550 mg Split Dose (n = 2)): (50.0) % | TEAE Troponin increase, % ([1]; 550 mg Split Dose (n = 2)): (50.0) % | maximum troponin I level (one subject) ([1]; 550 mg, 24 hours post-dose, 4×ULN): 0.12 ng/mL | TEAE Anemia, % ([1]; Total Active (n = 12)): (8.3) % | TEAE Any SOC, any PT, % ([1]; Total Active (n = 12)): (83.3) % | TEAE Bursitis, % ([1]; Total Active (n = 12)): (8.3) % | TEAE Cardiac discomfort, % ([1]; Total Active (n = 12)): (8.3) % | TEAE Diarrhoea, % ([1]; Total Active (n = 12)): (8.3) % | TEAE Diverticulitis, % ([1]; Total Active (n = 12)): (8.3)- % | TEAE Dyspnea, % ([1]; Total Active (n = 12)): (8.3) % | TEAE Fatigue, % ([1]; Total Active (n = 12)): (8.3) % | TEAE Hypomagnesemia, % ([1]; Total Active (n = 12)): (8.3) % | TEAE Infusion site discomfort, % ([1]; Total Active (n = 12)): (8.3) % | TEAE Neck pain, % ([1]; Total Active (n = 12)): (8.3) % | TEAE Oral contusion, % ([1]; Total Active (n = 12)): (8.3) % | TEAE Orthostatic hypotension, % ([1]; Total Active (n = 12)): (8.3) % | TEAE Proteinuria, % ([1]; Total Active (n = 12)): (8.3) % | TEAE Troponin increase, % ([1]; Total Active (n = 12)): (8.3) % | TEAE Urinary tract infection, % ([1]; Total Active (n = 12)): (8.3) % | TEAE Ventricular extrasystoles, % ([1]; Total Active (n = 12)): (8.3) % | QTcF (study ECGs) ([1]; all patients): no signal for QTcF increase | Holter monitoring: atrial ectopy, atrial fibrillation, ventricular ectopy, NSVT runs ([1]; compared to placebo): no signal | active-treatment periods with transient troponin increase (3/30) ([1]; doses from 175 to 550 mg): 10% | subjects with transient troponin increase (3/12) ([1]; doses from 175 to 550 mg): 25% | safety and tolerability ([1]; single-ascending doses 175 to 550 mg): safe and generally well-tolerated | AEs considered related to treatment (healthy subjects; 50 mg dose group (50.0%)): 3 subjects | serious AE (healthy subjects; 100 mg dose group): short duration of complete AV block | AEs considered related to treatment (healthy subjects; 350 mg dose group (50.0%)): 3 subjects | hs-troponin I concentration in one subject (healthy subjects; 525 mg group, 6 hours postdose, upper limit of normal 15 ng/L): 16 ng/L | ECG or ECG intervals including PR interval (healthy subjects; 3-525 mg): no significant changes | vital sign or safety laboratory parameters (healthy subjects; 3-525 mg): no clinically significant changes | tolerability (healthy subjects; single doses up to 525 mg): well-tolerated | hs-troponin I, mild increase in one subject (healthy subjects; upper range of normal 15 ng/L): 16 ng/L

Source: patent US20220265629A1, “TREATMENT OF SYSTOLIC DYSFUNCTION AND HEART FAILURE WITH REDUCED EJECTION FRACTION WITH THE COMPOUND (R)-4-(1-((3-(DIFLUOROMETHYL)-1-METHYL-1H-PYRAZOL-4-YL)SULFONYL)-1-FLUOROETHYL)-N-(ISOXAZOL-3-YL)PIPERIDINE-1-CARBOXAMIDE” (MyoKardia, Inc., priority 2019, published 2022)
